Patent publication US8058243B2, “Method for treating a brain cancer with ifenprodil” (HSC Research and Development Limited Partnership, priority 2006, dated 2011)
Counter-ions that a name gives are not always drawn. Like-named read-outs stand apart in the source and are kept apart here.

Tested on: murine neural precursor cells (neurosphere cultures)
Experiment: HTS of LOPAC library against secondary neurosphere cultures, MTT proliferation assay at 3 μM, day 7 (z score, P value)
Assay type: cell-based, mouse
[1] = LOPAC library screen, 3 μM, MTT, neurosphere cultures
[2] = LOPAC primary screen, neurosphere MTT proliferation, 3 μM, day 7
[3] = yes = significantly inhibited neurosphere proliferation (P<0.01) in the primary screen
[4] = LOPAC library screen, 3 μM, MTT, secondary neurosphere cultures, day 7
[5] = LOPAC library screen at 3 μM, secondary neurosphere cultures, MTT
[6] = primary LOPAC screen, 3 μM, MTT, neurosphere proliferation
[7] = yes/no: significantly inhibited neurosphere proliferation in the primary screen
[8] = yes/no: significantly inhibited neurosphere proliferation (P<0.01) in the primary screen
[9] = yes/no: significantly inhibited neurosphere proliferation (P<0.01) in primary screen
[10] = LOPAC screen, neurosphere MTT proliferation, 3 μM, day 7
[11] = yes/no: significantly inhibited neurosphere proliferation in primary screen

For `CC(C)N(CCC(=O)c1ccc2ccccc2c1)Cc1ccccc1` [ZM 39923 hydrochloride], the “Z Score” value [1] was 0.7457, the Z score [2] was 0.746 and the Activity [3] was “no”.
`CCCOc1ccccc1-c1nc2nn[nH]c2c(=O)[nH]1` [Zaprinast] was tested, and the “Z Score” value [4] was −2.506, the Z score [2] was −2.506 and the Activity [3] was “yes”.
In the case of `COc1cc(-c2ccc(=O)[nH]n2)ccc1OC(F)F` [Zardaverine], the “Z Score” value [5] is reported as −0.3412 and the Z score [6] is reported as −0.341.
For `CN(C)C/C=C(/c1ccc(Br)cc1)c1cccnc1` [Zimelidine dihydrochloride], the “Z Score” value [5] was −0.649, the Z score [6] was −0.649 and the Activity [7] was “no”.
In the case of `NS(=O)(=O)Cc1noc2ccccc12` [Zonisamide sodium], the “Z Score” value [5] is reported as −0.9169, the Z score [6] is reported as −0.917 and the Activity [7] is reported as “no”.
`N=C(N)NC(CCC(=O)O)C(=O)O` (stereo not drawn) [alpha-Guanidinoglutaric acid] was tested, and the “Z Score” value (168 h, 3 µM) was −9.041, the Z score (168 h, 3 µM) was −9.041 and the Activity [8] was “yes”.
`CN1[C@@H](CC(=O)c2ccccc2)CCC[C@H]1C[C@H](O)c1ccccc1` [alpha-Lobeline hydrochloride] was tested, and the “Z Score” value [1] was 0.5499, the Z score [2] was 0.550 and the Activity [9] was “no”.
`CC(N)Cc1c[nH]c2ccc(O)cc12.O=C(O)/C=C\C(=O)O` (stereo not drawn) [alpha-Methyl-5-hydroxytryptamine maleate] was tested, and the “Z Score” value was −0.7796, the Z score [2] was −0.780 and the Activity [3] was “no”.
With `Cl.N[C@@H](CCl)C(=O)O` [beta-Chloro-L-alanine hydrochloride] the “Z Score” value was −1.39, the Z score [10] was −1.390 and the Activity [9] was “no”.
With `C[C@]12CC[C@@H]3c4ccc(O)cc4CC[C@H]3[C@@H]1CC[C@@H]2O` [beta-Estradiol] the “Z Score” value was −0.5623, the Z score [2] was −0.562 and the Activity [9] was “no”.
For `CC1(C)CCC2=C(O1)c1ccccc1C(=O)C2=O` [beta-Lapachone], the “Z Score” value (168 h, 3 µM) was −10.43, the Z score (168 h, 3 µM) was −10.428 and the Activity [3] was “yes”.
For `NC/C=C\C(=O)O` [cis-4-Aminocrotonic acid], the “Z Score” value [5] was −1.088, the Z score [6] was −1.088 and the Activity [7] was “no”.
In the case of `Br.CCCN1CCC[C@@H]2c3ccc(O)cc3CC[C@@H]21` [cis-(B1)-8-OH-PBZI hydrobromide], the “Z Score” value is reported as −2.297.
For `O=C(O)[C@@H]1C[C@H](C(=O)O)N1` [cis-Azetidine-2,4-dicarboxylic acid], the “Z Score” value (168 h, 3 µM) was −2.251, the Z score (168 h, 3 µM) was −2.251 and the Activity [7] was “no”.
For `C#CC(N)CCC(=O)O` (stereo not shown) [gamma-Acetylinic GABA], the “Z Score” value was 1.285, the Z score [6] was 1.285 and the Activity [7] was “no”.
With `N[C@H](CCC(=O)NCS(=O)(=O)O)C(=O)O` [gamma-D-Glutamylaminomethylsulfonic acid] the “Z Score” value [1] was −0.04649, the Z score [2] was −0.046 and the Activity [9] was “no”.
In the case of `CC(C(=O)O)c1ccc(CC2CCCC2=O)cc1` (stereo not shown) [loxoprofen], the “Z Score” value [5] is reported as −0.8833, the Z score [2] is reported as −0.883 and the Activity [9] is reported as “no”.
With `Oc1ccc2c3c1O[C@H]1c4[nH]c5c(c4C[C@@]4(O)[C@@H](C2)N(CC2CC2)CC[C@]314)C[C@@]1(O)[C@H]2Cc3ccc(O)c4c3[C@@]1(CCN2CC1CC1)[C@H]5O4` [nor-Binaltorphimine dihydrochloride] the “Z Score” value was 0.3881, the Z score [2] was 0.388 and the Activity [3] was “no”.
With `Cl.Nc1cc(Cl)c(N=C2NCCN2)c(Cl)c1` [p-Aminoclonidine hydrochloride] the “Z Score” value was −0.04776, the Z score [2] was −0.048 and the Activity [11] was “no”.
`O=C1C=CC(=O)C=C1` [p-Benzoquinone] was tested, and the Activity was “no”, the “Z Score” value [4] was −1.571 and the Z score [6] was −1.571.
For `N[C@@H](Cc1ccc(F)cc1)C(=O)O` [p-Fluoro-L-phenylalanine], the “Z Score” value (168 h, 3 µM) was −0.7023, the Z score (168 h, 3 µM) was −0.702 and the Activity [9] was “no”.
In the case of `Cl.Clc1cc(I)cc(Cl)c1NC1=NCCN1` [p-Iodoclonidine hydrochloride], the “Z Score” value is reported as −0.1606, the Z score [2] is reported as −0.161 and the Activity [9] is reported as “no”.
For `COc1ccccc1N1CCN(CCN(C(=O)c2ccc(F)cc2)c2ccccn2)CC1.Cl.Cl` [p-MPPF dihydrochloride], the “Z Score” value was −2.16.
With `COc1ccccc1N1CCN(CCN(C(=O)c2ccc(F)cc2)c2ccccn2)CC1.Cl.Cl` [p-MPPF dihyrochloride] the Z score [2] was −2.160 and the Activity [3] was “no”.
In the case of `COc1ccccc1N1CCN(CCN(C(=O)c2ccc(I)cc2)c2ccccn2)CC1.Cl` [p-MPPI hydrochloride], the “Z Score” value is reported as 0.2606, the Z score [2] is reported as 0.261 and the Activity [3] is reported as “no”.
With `NC1(C(=O)O)CCC(C(=O)O)C1` (stereo not drawn) [trans-(B1)-ACPD] the “Z Score” value was 0.3149.
For (+)-Catechin Hydrate, the “Z Score” value [1] was 0.5105, the Z score [6] was 0.511 and the Activity [7] was “no”.
For (+)-Cyclazocine, the “Z Score” value was 0.6116, the Z score [10] was 0.612 and the Activity [9] was “no”.
In the case of (+)-Nicotine (+)-di-p-toluoyl tartrate, the Activity is reported as “no”, the “Z Score” value is reported as −2.233 and the Z score is reported as −2.233.
In the case of (S)-(−)-propafenone hydrochloride, the “Z Score” value [5] is reported as −0.7524, the Z score [2] is reported as −0.752 and the Activity [11] is reported as “no”.
(S)-Propranolol hydrochloride was tested, and the “Z Score” value [5] was −0.5346, the Z score [2] was −0.535 and the Activity [11] was “no”.
With (±)-Atenolol the Z score [6] was −0.658 and the Activity [7] was “no”.
In the case of (±)-Pindobind, the Z score [2] is reported as 0.257 and the Activity [11] is reported as “no”.
In the case of (−)-Bicuculline methbromide, 1(S), 9(R), the Activity is reported as “no”, the “Z Score” value is reported as −1.842 and the Z score [2] is reported as −1.842.
For (−)-Cotinine, the “Z Score” value [5] was −0.5099, the Z score [10] was −0.510 and the Activity [9] was “no”.
For (−)-Eseroline fumarate, the “Z Score” value was 0.6339, the Z score [2] was 0.634 and the Activity [9] was “no”.
For (−)-MK-801 hydrogen maleate, the “Z Score” value was 1.133, the Z score [2] was 1.133 and the Activity [3] was “no”.
With (−)-Naproxen sodium the “Z Score” value [1] was 0.6024, the Z score [2] was 0.602 and the Activity [3] was “no”.
With (−)-Perillic acid the “Z Score” value was −1.321.
For (−)-Quinpirole hydrochloride, the “Z Score” value was −1.565 and the Z score was −1.565.
(−)-Scopolamine methyl nitrate was tested, and the Activity [11] was “no”.
For (−)-Tetramisole hydrochloride, the “Z Score” value [4] was −1.866.
With (−)Amethopterin the “Z Score” value [4] was −8.704, the Z score [2] was −8.704 and the Activity [8] was “yes”.
In the case of Albuterol hemisulfate, the “Z Score” value [5] is reported as −0.949, the Z score [2] is reported as −0.949 and the Activity [11] is reported as “no”.
For CGP 20712A methanesulfonate, the “Z Score” value [1] was 0.6491, the Z score [10] was 0.649 and the Activity [9] was “no”.
With Ceramide the “Z Score” value was −0.8267, the Z score [6] was −0.827 and the Activity [7] was “no”.
With Dextrorphan D-tartrate the Activity was “no”, the “Z Score” value was 1.569 and the Z score was 1.569.
For Dihydroergocristine methanesulfonate, the “Z Score” value was −0.773, the Z score [10] was −0.773 and the Activity [9] was “no”.
With Foliosidine the “Z Score” value was −0.0969, the Z score [2] was −0.097 and the Activity [9] was “no”.
In the case of “Histamine, R(−)-alpha-methyl-, dihydrochloride”, the “Z Score” value [4] is reported as −1.469, the Z score [2] is reported as −1.469 and the Activity [9] is reported as “no”.
